Test results taken from article PMC7312375, “A Novel, Pan-PDE Inhibitor Exerts Anti-Fibrotic Effects in Human Lung Fibroblasts via Inhibition of TGF-β Signaling and Activation of cAMP/PKA Signaling” (International Journal of Molecular Sciences, 2020).

Assays:
MRC-5 cells [1] = assay: Intracellular calcium measurements (Fluo-4); type: cell-based, human; conditions: 10 µM, acute application
Experimental: MRC-5 cells were briefly washed with NaHEPES buffer (NaHEPES buffer was prepared as follows: NaCl 140 mM, KCl 4.7 mM, HEPES 10 mM, MgCl2 1 mM, glucose 10 mM; pH 7.3) and then loaded with 1 µM Fluo-4 AM (Thermo Fisher Scientific, Waltham, MA, USA) for 1 h, 37 °C in NaHEPES. After the incubation, the cells were washed again with fresh NaHEPES and used for experiments in a flow chamber perfused with NaHEPES-based extracellular solution supplemented with 1 mM CaCl2. All experiments were carried out at room temperature using Zeiss LSM 880 confocal microscope (40× oil objective), excitation was set to 488 nm, and the emission was between 500 and 600 nm. Each series of images was recorded at 256 × 256-pixel resolution, two consecutive frames were averaged, and the interval between the averaged images was set at 2 s. Fluorescence signals were plotted as F/F0, where F0 was baseline fluorescence defined as the averaged signal from ten consecutive baseline images.

MRC-5 cells [2] = assay: FBS-induced MRC-5 proliferation, alamarBlue assay; type: cell-based, human; conditions: for inhibition at 50 µM: Homo sapiens, MRC5, read-out: inhibition of FBS-induced MRC-5 proliferation rate; for MRC-5 proliferation [% of control]: Table S1 (Figure 2B), 48 h with FBS
Experimental: The normal human lung fibroblast cell line—MRC-5 (ATCC® CCL-171™, Manassas, VA, USA)—was used in the study. Cells were cultured in Eagle’s Minimum Essential Medium (EMEM, ATCC® 30-2003™, Manassas, VA, USA) supplemented with 10% (v/v) fetal bovine serum (FBS; Gibco, Thermo Fisher Scientific, Waltham, MA, USA) and antibiotics mixture (penicillin, streptomycin, amphotericin B; Gibco, Thermo Fisher Scientific, Waltham, MA, USA) (standard culture medium) in standard culture conditions (5% CO2, 37 °C, 95% humidity). Unless otherwise specified, for the experiments, cells were seeded at a final density (5 × 10^3/cm^2) in standard culture medium for 24 h and then cultured in EMEM at reduced serum content (0.5%; v/v) for additional 24 h. TGF-β1 (BD Biosciences, San Jose, CA, USA) was administered at 5 ng/mL concentration in all experiments.
MRC-5 cell viability was evaluated using CytoTox-ONE™ Homogeneous Membrane Integrity Assay (Promega Corporation, Madison, WI, USA) according to the manufacturer’s protocol. The average fluorescence intensity with an excitation wavelength of 560 nm and an emission wavelength of 590 nm was measured using a microplate reader (SpectraMax® iD3, Molecular Devices, San Jose, CA, USA). Experiments were run three times in duplicates. MRC-5 proliferation was determined using the alamarBlue® assay. Cells were seeded for 24 h in standard culture medium, then serum-starved for an additional three days. Evaluated compounds (1-50 µM) were added 1 h prior FBS (10%, v/v) for an additional 48 h. After incubation, the alamarBlue® reagent (Invitrogen, Life Technologies, Carlsbad, CA, USA), dissolved in Hank’s Balanced Salt Solution (10% v/v; Gibco, Thermo Fisher Scientific, Waltham, MA, USA), was added for 30 min. After the observed color change, the supernatant was transferred to 96-well plates, and the absorbance was measured at 570 and 600 nm. The percent difference in reduction between treated and control cells was calculated according to the manufacturer’s protocol. The experiments were run three times in duplicates.

[3] = tested on: TGF-β1-induced MRC-5 cells; assay: Protein kinase A activity; type: cell-based, human; conditions: 10 µM 30 min, then TGF-β1 30 min
Experimental: Protein Kinase A (PKA) activity in MRC-5 cells was determined using a PKA Colorimetric Activity Kit (Invitrogen, Carlsbad, CA, USA) according to the manufacturer’s protocol. MRC-5 cells were seeded in standard culture medium, and after 48 h they were serum-starved for 2 h in HBSS, followed by the addition of study compounds (10 µM) and incubation for 30 min. Finally, TGF-β1 was administered, and the samples were incubated for an additional 30 min. Whole cell lysates were used in the assay. The amount of PKA was normalized to the total protein content in each sample. The experiments were run two times in duplicates.

[4] = tested on: TGF-β1-induced MRC-5 cells; assay: Immunofluorescence count of α-SMA positive myofibroblasts; type: cell-based, human; conditions: 10 µM, 48 h TGF-β1 5 ng/mL
Experimental: (§1) For immunocytochemical labeling, MRC-5 cells were seeded on glass coverslips. Study compounds (10 µM) were added 1 h before TGF-β1 treatment, and analysis was performed after 1 h (p-Smad-2 and p-CREB detection) or 48 h (α-SMA detection) of incubation. Cells were fixed in methanol or 4% formaldehyde solution, permeabilized in 0.2% or 0.1% Triton X-100 solution (for p-Smad-2 and p-CREB or α-SMA, respectively). After incubation in blocking solution the following primary antibodies: rabbit polyclonal, anti-phospho-Smad-2 (Ser465, Ser467) antibody (#44-244G, Thermo Fisher Scientific, Waltham, MA, USA); rabbit polyclonal, anti-phospho-CREB1 (Ser133) antibody (#orb213775, Biorbyt, Cambridge, United Kingdom); mouse monoclonal, anti-α-SMA antibody (#MA5-11547, Thermo Fisher Scientific, Waltham, MA, USA) and secondary antibodies: goat anti-rabbit Alexa Fluor 546 conjugated antibody and goat anti-mouse Alexa Fluor 488 conjugated antibody (#A-11010 and #A-11001, respectively, Invitrogen, Carlsbad, CA, USA) were used. Nuclei were counterstained with Hoechst 33342 dye (Thermo Fisher Scientific, Waltham, MA, USA). Slides were mounted in ProLong™ Glass Antifade Mountant (Invitrogen, Carlsbad, CA, USA) and analyzed using Leica DMiL LED Fluo microscope (for α-SMA and p-CREB visualization, 40× objective) or Leica DMi8 with Thunder Imaging System (for p-Smad-2 visualization, 40× objective), all equipped with LAS-X Software (Leica Microsystems GmbH, Wetzlar, Germany). Experiments were run four times using five randomly selected fields of view, at the same fluorescent time exposure and in a blind-folded manner.

[5] = tested on: TGF-β1-induced MRC-5 cells; assay: Western blot of p-Smad-2; type: cell-based, human; conditions: 10 µM, 1 h pre-incubation, TGF-β1 5 ng/mL 1 h
Experimental: Western Blot analysis was performed according to a standard protocol. Briefly, MRC-5 cells were pre-incubated with the study compounds (10 µM) for 1 h, […] (RIPA Lysis and Extraction Buffer, Thermo Fisher Scientific, Waltham, MA, USA) and supplemented with protease inhibitor cocktail and phosphatase inhibitor cocktail (both from Sigma Aldrich, St. Louis, MO, USA). Equal amounts of protein (30 µg) were separated using 10% SDS-polyacrylamide gels and transferred onto polyvinylidene difluoride (PVDF) membranes (Thermo Fisher Scientific, Waltham, MA, USA). Then membranes were washed with Tris Buffered Saline with Tween 20 (TBST) buffer (150 mM NaCl, 50 mM Tris, 0.05% Tween 20), blocked with 5% skim milk in TBST and incubated overnight with the appropriate primary antibody: rabbit, polyclonal anti-SMAD2 antibody, dilution 1:250, #51-1300 and rabbit, polyclonal anti-phospho-SMAD2 (Ser465, Ser467) antibody, dilution 1:500, #44-244G (both from Thermo Fisher Scientific, Waltham, MA, USA); rabbit, polyclonal anti-CREB1 antibody, dilution 1:500, #orb213777 and rabbit, polyclonal anti-phospho-CREB1 (Ser133) antibody, dilution 1:500, #orb213775 (both from Biorbyt LLC, San Francisco, CA, USA); mouse monoclonal anti-GAPDH antibody, dilution 1:5000, #G8795 (Sigma Aldrich, St. Louis, MO, USA). The next day, after gentle rising, membranes were exposed to secondary, rabbit anti-mouse IgG (whole molecule) peroxidase antibody (#A9044, dilution 1:3000, Sigma Aldrich, St. Louis, MO, USA) and goat anti-rabbit IgG (H+L) peroxidase-conjugated antibody (#32460, dilution 1:3000, Thermo Fisher Scientific, Waltham, MA, USA). Blots were visualized using a chemiluminescence method (Clarity Max™ Western ECL Substrate—Peroxide Solution, BioRad, Hercules, CA, USA) with a C-DiGit® Blot Scanner (LI-COR Biosciences, Lincoln, NE, USA). ROD was measured according to the NIH guidelines with Fiji ImageJ Software. The experiments were run four times.

[6] = tested on: TGF-β1-induced MRC-5 cells; assay: Immunofluorescence, nuclear localization of p-CREB; type: cell-based, human; conditions: 10 µM
Experimental: as §1

TRPA1 = target: T1, TRPA1 (Homo sapiens, UniProt O75762); assay: TRPA1 antagonist FLIPR assay (functional, HEK293 cell-based)
T1 construct: host or cells: HEK293
Experimental: The TRPA1 agonist and antagonist fluorescent imaging plate reader (FLIPR) Assay (functional, HEK293 cell-based) was performed at Eurofins Panlabs, Inc. (St. Charles, MO, USA). The compounds were prepared in assay buffer to the final dilutions 10 and 50 µM. In each experiment, the respective reference compounds were tested: allyl isothiocyanate (the agonist assay) and ruthenium red (the antagonist assay). The […] assays were conducted on a FLIPR^TETRA instrument where the test compounds, vehicle controls, and reference agonists or antagonists were added to the assay plate after a fluorescence baseline was established. The agonist or antagonist incubation during the assay was for a total of 180 s and was used to assess each compound’s ability to activate or inactivate TRPA1. All plates were subjected to appropriate baseline corrections. Once baseline corrections were processed, maximum fluorescence values were exported, and data was manipulated to calculate percentage activation or percentage inhibition. Results showing activity greater than 25% were considered to represent significant effects of test compounds. Experiments were run three times, […].

T1 sequence (O75762 whole entry, species assumed): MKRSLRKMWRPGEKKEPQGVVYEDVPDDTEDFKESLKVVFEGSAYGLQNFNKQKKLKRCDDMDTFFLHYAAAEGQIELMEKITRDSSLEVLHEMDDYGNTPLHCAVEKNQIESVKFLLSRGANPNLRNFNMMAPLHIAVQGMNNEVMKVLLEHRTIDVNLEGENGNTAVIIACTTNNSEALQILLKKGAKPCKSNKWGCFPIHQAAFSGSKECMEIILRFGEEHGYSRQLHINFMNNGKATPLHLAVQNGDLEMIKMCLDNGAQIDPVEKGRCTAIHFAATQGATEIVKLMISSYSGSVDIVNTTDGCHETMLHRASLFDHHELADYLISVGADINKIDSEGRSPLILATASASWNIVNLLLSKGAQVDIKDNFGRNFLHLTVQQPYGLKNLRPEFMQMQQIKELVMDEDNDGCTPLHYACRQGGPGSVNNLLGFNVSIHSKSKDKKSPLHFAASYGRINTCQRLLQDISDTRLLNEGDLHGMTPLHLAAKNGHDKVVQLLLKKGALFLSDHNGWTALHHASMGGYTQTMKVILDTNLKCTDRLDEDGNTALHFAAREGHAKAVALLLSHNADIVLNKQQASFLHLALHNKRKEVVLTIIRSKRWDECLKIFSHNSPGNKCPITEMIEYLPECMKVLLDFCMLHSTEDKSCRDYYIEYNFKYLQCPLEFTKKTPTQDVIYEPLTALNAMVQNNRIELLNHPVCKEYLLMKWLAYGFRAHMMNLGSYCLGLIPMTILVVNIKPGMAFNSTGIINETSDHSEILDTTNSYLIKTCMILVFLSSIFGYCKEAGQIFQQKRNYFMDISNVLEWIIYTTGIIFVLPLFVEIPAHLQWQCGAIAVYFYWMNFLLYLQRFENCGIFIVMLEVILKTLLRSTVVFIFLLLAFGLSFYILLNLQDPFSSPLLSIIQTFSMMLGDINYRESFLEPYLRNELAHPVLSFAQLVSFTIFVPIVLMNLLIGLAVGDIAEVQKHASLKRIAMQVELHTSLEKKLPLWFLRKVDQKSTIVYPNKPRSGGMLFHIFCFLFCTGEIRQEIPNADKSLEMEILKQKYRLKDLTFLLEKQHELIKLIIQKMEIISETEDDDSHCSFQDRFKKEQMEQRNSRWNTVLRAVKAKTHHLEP

Row | SMILES | increase in average Ca2+ response area over baseline (MRC-5 cells [1]) [fold] | inhibition at 50 µM (MRC-5 cells [2]; 50 µM) [%] | MRC-5 proliferation [% of control] (MRC-5 cells [2]; 1 µM) | MRC-5 proliferation [% of control] (MRC-5 cells [2]; 5 µM) | MRC-5 proliferation [% of control] (MRC-5 cells [2]; 10 µM) | MRC-5 proliferation [% of control] (MRC-5 cells [2]; 15 µM) | MRC-5 proliferation [% of control] (MRC-5 cells [2]; 20 µM) | MRC-5 proliferation [% of control] (MRC-5 cells [2]; 50 µM) | Protein kinase A activity in TGF-β1-induced fibroblasts [3] | number of myofibroblasts (MRC-5 with α-SMA-positive stress fibers); fibroblast to myofibroblast transition [4] | TGF-β1-induced Smad-2 phosphorylation (immunoblot) [5] | elevation of fraction of MRC-5 cells with nuclear p-CREB localization [6] | TRPA1 Inhibition (% of control) (TRPA1; 10 µM) | TRPA1 Inhibition (% of control) (TRPA1; 50 µM)
1 | CC(C)CN1C(=O)/C(=C/C(=O)O)c2cccc(F)c21 [ASP 7663, (E)-2-(7-fluoro-1-isobutyl-2-oxoindolin-3-ylidene)acetic acid, reference compound] | 10 | 14 | 99 % of control | 97 % of control | 96 % of control | 92 % of control | 89 % of control | 86 % of control | – | – | – | – | – | –
2 | CC(C)c1ccc(NC(=O)Cn2cnc3c2c(=O)n(C)c(=O)n3C)cc1 [HC-030031, 2-(1,3-dimethyl-2,6-dioxo-1,2,3,6-tetrahydro-7H-purin-7-yl)-N-(4-isopropylphenyl)acetamide, reference compound] | – | 15 | 98 % of control | 96 % of control | 95 % of control | 90 % of control | 90 % of control | 85 % of control | no significant change | did not show any significant effect | no differences | only a slight increase | 91.8 % of control | 98.8 % of control
